{"source": "patent US11345701B1", "about": "“KRAS mutant protein inhibitors” (Jacobio Pharmaceuticals Co., Ltd., priority 2021, dated 2022)", "tested_on": "NCI-H1373 (KRAS^G12C) xenograft", "experiment": "Efficacy in NCI-H1373 (KRAS G12C) xenograft model", "type": "in vivo, BALB/c nude mice", "details": "10 mg/kg, QD", "protocol": "NCI-H1373 (KRAS^G12C) cells (5.0E+06 cells) were injected subcutaneously into the right flank of female BALB/c nude mice (6-8 weeks) in a mixture with PBS and Matrigel (Corning) (PBS/Matrigel=1:1(v/v)). Mice were monitored daily and caliper measurements began when tumors became visible. Tumor volume was calculated by measuring two perpendicular diameters using the formula: (L*W^2)/2 in which L and W refer to the length and width tumor diameter respectively. When the average tumor volume reached 150-200 mm^3, mice were grouped randomly (n=6/group) and treated with compounds. Tumor volume and mice weight was measured twice a week during treatment (˜ 3 weeks). Tumor growth inhibition rates were calculated by TGI %=(1−(Vt−Vt0)/(Vc−Vc0))*100%, wherein Vc and Vt are the mean tumor volume of control and treated groups at the end of the study respectively, and Vc0 and Vt0 are the mean tumor volume of control and treated groups at the start respectively. The results are in the following Table 7 and FIG. 1: […]", "data": [{"smiles": "C=CC(=O)N1CCN(c2nc(=O)n(-c3c(C)ccnc3C(C)C)c3nc(-c4c(N)c(F)c(F)c(F)c4F)c(F)cc23)[C@@H](C)C1", "note": "(atropisomer, axis not shown; (M)) [Compound 2-1, (M)-4-((S)-4-acryloyl-2-methylpiperazin-1-yl)-7-(2-amino-3,4,5,6-tetrafluorophenyl)-6-fluoro-1-(2-isopropyl-4-methylpyridin-3-yl)pyrido[2,3-d]pyrimidin-2(1H)-one]", "values": [{"measurement": "Tumor response in words", "setting": "Table 7 and FIG. 1", "result": "regression of the tumor has been observed"}, {"measurement": "Tumor volume at the end (Day 21)", "setting": "female BALB/c nude mice, Day 21", "result": 27, "unit": "mm^3"}, {"measurement": "Tumor volume at the start", "setting": "female BALB/c nude mice, baseline", "result": 192, "unit": "mm^3"}, {"measurement": "TGI %", "setting": "female BALB/c nude mice, end of study (Day 21)", "result": 110, "unit": "%"}]}]}
